Assay results: patent publication US20220273659A1, “HETEROCYCLIC COMPOUNDS AS KINASE INHIBITORS” (NUVATION BIO INC., priority 2019, published 2022)

Columns and labels:
CDK4 = biological target: T1, CDK4 (Homo sapiens, UniProt P11802); test: In vitro kinase inhibition IC50, luminescence (ADP Glo), retinoblastoma substrate; assay type: biochemical; conditions: read-out: CDK4/D1 IC50
T1 construct: purchased Invitrogen PR8064A
In short: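 Inhibition of CDK4 was quantified by ADP Glo luminescence with retinoblastoma as substrate. Reactions held 5 nM kinase, 1 μM retinoblastoma and 25 μM ATP and ran 2H at room temperature. A Synergy Neo reader took signals 15 min and 45 min after detection reagent, and percent inhibition was fitted to a four-parameter logistic model in XLfit to obtain IC50.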

CDK6 = biological target: T2, CDK6 (Homo sapiens, UniProt Q00534); test: as above; assay type: biochemical; conditions: read-out: CDK6/D1 IC50
T2 construct: purchased Invitrogen PR8422B
In short: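 IC50 derived by four-parameter logistic fit of percent inhibition, read as ADP-Glo luminescence. Reactions: 5 nM CDK6, 1 μM retinoblastoma, 25 μM ATP, test compound 0.1–200 nM final, 2 h at room temperature.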

FMS kinase = biological target: T3, FMS kinase (Homo sapiens, UniProt P07333); test: LanthaScreen Eu Kinase Binding Assay (ATP, fluorescent-PolyGT substrate); assay type: biochemical
T3 construct: purchased Invitrogen (Life Technologies)
In short: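 TR-FRET read (ex 340, em 495 and 520 nm) after EDTA/Tb-labelled antibody stop; IC50 by four-parameter logistic fit of percent inhibition. Reaction: 1.25 nM FMS, 10 min compound preincubation (3-fold series), then 1 h at room temperature with 10 μM ATP and 200 nM fluorescent PolyGT.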

PI3Kδ kinase = biological target: T4, PI3Kδ kinase (Homo sapiens, UniProt O00329); test: PI3Kδ kinase assay (ADP-Glo, Reaction Biology); assay type: biochemical
T4 construct: purchased Reaction Biology Corporation (assay service)
In short: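 Kinase in Tris-HCl 40 mM pH 7.5, MgCl2 20 mM, orthovanadate 3 mM, DTT 2 mM, 0.05% CHAPS, 1% DMSO, preincubated 10 min at room temperature with compound (about 0.5 nM–100 μM). ATP started a 30-min reaction at 30 °C. ADP-Glo luminescence converted to μM ADP via standard curve; IC50 from nonlinear regression.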

[1] = test system: DU4475 breast carcinoma cells; test: Cancer cell proliferation assay, single agent (cell viability); assay type: cell-based; conditions: Homo sapiens, DU-4475; Table 4; Rb negative; treatment 144 Hr with medium change at 72 Hr; Cell Titer-Glo or resazurin
In short: (§1)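 Viability read by resazurin or CellTiter-Glo after 24 h treatment (BT-549) or 144 h with a 72 h medium change (MCF-7, DU4475). Compounds tested at 7–9 concentrations, e.g. 1.1 nM–10 μM, added the day after seeding; IC50 by nonlinear sigmoidal regression.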

[2] = test system: MCF-7 breast adenocarcinoma cells; test: as above; assay type: cell-based; conditions: Homo sapiens, MCF7, Table 4; Rb positive; treatment 144 Hr with medium change at 72 Hr; Cell Titer-Glo or resazurin
In short: as §1

T3 sequence (P07333 20-972): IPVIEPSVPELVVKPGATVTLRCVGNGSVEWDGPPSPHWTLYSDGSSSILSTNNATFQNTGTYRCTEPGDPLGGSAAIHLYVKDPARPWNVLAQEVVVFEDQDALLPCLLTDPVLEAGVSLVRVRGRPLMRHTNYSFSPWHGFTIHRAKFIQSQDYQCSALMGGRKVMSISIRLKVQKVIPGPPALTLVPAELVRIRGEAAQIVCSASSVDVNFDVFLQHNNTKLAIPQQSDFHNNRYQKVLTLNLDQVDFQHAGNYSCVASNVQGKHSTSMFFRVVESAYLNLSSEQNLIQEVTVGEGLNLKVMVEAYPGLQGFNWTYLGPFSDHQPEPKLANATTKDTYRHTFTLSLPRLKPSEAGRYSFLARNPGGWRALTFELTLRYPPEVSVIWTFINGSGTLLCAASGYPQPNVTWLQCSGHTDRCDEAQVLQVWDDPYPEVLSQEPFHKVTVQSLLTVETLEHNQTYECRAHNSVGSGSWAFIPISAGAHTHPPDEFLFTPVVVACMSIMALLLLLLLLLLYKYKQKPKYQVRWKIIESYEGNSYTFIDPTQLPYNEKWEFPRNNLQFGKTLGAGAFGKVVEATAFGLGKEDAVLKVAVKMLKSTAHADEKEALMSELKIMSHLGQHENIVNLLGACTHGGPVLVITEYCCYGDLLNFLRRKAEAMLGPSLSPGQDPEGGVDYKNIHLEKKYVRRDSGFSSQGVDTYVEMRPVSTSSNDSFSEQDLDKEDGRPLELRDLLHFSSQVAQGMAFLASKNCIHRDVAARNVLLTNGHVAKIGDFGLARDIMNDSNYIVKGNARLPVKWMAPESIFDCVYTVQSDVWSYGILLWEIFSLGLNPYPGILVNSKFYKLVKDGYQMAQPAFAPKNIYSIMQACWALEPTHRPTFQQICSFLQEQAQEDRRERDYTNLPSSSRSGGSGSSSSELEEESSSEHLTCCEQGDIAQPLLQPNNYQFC
T4 sequence (O00329 whole entry): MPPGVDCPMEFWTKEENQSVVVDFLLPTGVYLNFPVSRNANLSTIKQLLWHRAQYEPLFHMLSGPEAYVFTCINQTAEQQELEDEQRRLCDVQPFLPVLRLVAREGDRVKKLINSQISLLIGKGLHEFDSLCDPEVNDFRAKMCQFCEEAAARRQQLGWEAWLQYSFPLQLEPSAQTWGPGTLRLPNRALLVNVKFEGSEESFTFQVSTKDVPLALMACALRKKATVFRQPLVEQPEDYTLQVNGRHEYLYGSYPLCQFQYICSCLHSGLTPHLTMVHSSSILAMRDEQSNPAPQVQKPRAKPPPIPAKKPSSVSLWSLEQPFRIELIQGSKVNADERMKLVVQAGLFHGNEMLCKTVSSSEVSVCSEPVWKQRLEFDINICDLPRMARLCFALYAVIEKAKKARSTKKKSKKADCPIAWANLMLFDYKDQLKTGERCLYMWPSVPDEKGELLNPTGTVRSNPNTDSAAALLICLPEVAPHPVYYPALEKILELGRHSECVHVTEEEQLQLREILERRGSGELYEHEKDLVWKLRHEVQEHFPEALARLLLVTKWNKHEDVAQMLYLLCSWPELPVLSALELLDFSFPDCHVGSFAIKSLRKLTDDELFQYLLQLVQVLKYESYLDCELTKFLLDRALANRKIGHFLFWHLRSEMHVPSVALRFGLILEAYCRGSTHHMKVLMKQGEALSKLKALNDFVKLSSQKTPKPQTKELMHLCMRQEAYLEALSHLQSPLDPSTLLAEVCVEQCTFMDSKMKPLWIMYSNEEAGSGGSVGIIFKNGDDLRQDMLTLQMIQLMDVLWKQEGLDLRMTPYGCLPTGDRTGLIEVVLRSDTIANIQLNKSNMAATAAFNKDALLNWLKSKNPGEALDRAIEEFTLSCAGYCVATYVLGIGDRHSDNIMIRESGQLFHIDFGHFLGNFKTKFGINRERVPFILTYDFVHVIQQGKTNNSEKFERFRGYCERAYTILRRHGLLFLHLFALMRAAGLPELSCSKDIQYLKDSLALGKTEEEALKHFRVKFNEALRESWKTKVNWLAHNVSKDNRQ
T4 sequence (P27986 whole entry partner): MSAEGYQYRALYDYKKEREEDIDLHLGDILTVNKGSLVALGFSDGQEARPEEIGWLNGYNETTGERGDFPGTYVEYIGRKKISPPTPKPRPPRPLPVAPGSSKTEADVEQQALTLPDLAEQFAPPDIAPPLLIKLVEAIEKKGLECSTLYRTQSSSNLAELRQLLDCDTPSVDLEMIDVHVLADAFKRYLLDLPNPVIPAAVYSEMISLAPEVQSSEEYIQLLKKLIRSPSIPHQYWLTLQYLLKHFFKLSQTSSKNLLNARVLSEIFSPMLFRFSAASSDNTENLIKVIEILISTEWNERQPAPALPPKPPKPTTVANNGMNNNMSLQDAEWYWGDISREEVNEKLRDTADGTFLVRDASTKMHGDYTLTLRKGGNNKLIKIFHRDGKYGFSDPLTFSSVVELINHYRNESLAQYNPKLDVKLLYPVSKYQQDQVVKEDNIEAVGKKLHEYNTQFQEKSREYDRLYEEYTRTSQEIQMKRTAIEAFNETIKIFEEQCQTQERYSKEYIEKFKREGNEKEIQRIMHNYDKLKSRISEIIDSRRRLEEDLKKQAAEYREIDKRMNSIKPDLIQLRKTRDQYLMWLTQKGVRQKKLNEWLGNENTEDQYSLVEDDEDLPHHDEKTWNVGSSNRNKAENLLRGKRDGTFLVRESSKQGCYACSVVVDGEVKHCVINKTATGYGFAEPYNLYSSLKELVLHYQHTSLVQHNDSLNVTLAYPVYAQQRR
T2 sequence (Q00534 whole entry): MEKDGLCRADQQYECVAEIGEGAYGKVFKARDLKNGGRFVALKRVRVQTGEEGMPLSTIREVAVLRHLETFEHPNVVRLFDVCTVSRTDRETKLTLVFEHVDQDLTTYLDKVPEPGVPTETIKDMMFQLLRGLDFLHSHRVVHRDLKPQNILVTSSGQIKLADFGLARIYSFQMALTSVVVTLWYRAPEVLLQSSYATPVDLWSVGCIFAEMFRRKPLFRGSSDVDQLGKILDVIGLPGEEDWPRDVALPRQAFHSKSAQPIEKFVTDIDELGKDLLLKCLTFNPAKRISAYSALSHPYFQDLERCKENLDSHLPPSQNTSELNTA
T2 sequence (P24385 whole entry partner): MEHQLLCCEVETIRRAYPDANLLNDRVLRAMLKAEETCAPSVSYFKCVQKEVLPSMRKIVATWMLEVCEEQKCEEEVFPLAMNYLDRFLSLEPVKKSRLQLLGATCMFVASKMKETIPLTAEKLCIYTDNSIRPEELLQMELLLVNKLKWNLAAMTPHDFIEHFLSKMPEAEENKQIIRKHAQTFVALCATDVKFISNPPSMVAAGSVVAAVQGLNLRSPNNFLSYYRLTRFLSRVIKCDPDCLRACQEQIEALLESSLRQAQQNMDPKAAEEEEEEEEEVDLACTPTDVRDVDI
T1 sequence (P11802 whole entry): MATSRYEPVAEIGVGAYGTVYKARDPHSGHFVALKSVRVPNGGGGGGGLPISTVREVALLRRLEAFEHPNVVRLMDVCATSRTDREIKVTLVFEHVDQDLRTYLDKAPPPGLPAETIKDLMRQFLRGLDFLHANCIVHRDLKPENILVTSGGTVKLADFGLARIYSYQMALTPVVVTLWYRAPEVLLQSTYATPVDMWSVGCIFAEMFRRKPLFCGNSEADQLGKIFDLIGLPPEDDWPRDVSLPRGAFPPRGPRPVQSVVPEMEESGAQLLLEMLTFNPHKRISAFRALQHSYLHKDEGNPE
T1 sequence (P24385 whole entry partner): as the sequence (P24385 whole entry partner) above

Row | IC50 (CDK4) [nM] | IC50 (CDK6) [nM] | IC50 (FMS kinase) [nM] | IC50 (PI3Kδ kinase) [nM] | IC50 [1] [nM] | IC50 [2] [nM] | Compound
1 | > 200 | 76 | 1 | 416 | 2800 | 133 | CN1CCC(c2ccc(Nc3ncc4cc(C#N)c(=O)n(C5CCCC5)c4n3)cc2)CC1 [Compound No. 40, 8-cyclopentyl-2-((4-(1-methylpiperidin-4-yl)phenyl)amino)-7-oxo-7,8-dihydropyrido[2,3-d]pyrimidine-6-carbonitrile]
2 | 2.5 | 4 | 9.5 | 249 | 1280 | 190 | CN(C)CC(=O)N1CCc2ccc(Nc3ncc4cc(C#N)c(=O)n(C5CCCC5)c4n3)cc2C1 [Compound No. 53, 8-cyclopentyl-2-((2-(dimethylglycyl)-1,2,3,4-tetrahydroisoquinolin-7-yl)amino)-7-oxo-7,8-dihydropyrido[2,3-d]pyrimidine-6-carbonitrile]
3 | 3 | 3.5 | 7 | 248 | 1100 | 150 | CN(C)CC(=O)N1CCc2cc(Nc3ncc4cc(C#N)c(=O)n(C5CCCC5)c4n3)ccc2C1 [Compound No. 54, 8-cyclopentyl-2-((2-(dimethylglycyl)-1,2,3,4-tetrahydroisoquinolin-6-yl)amino)-7-oxo-7,8-dihydropyrido[2,3-d]pyrimidine-6-carbonitrile]
4 | 6.5 | 16 | 0.6 | 1690 | 1260 | 480 | N#Cc1cc2cnc(Nc3ccc(N4CCN5CCCC5C4)c(F)c3)nc2n(C2CCCC2)c1=O (stereo not drawn) [Compound No. 55, 8-cyclopentyl-2-((3-fluoro-4-(hexahydropyrrolo[1,2-a]pyrazin-2(1H)-yl)phenyl)amino)-7-oxo-7,8-dihydropyrido[2,3-d]pyrimidine-6-carbonitrile]
5 | 6.5 | 12 | 1 | 249 | 5180 | 1480 | N#Cc1cc2cnc(Nc3ccc(N4CCNCC4=O)c(F)c3)nc2n(C2CCCC2)c1=O [Compound No. 57, 8-cyclopentyl-2-((3-fluoro-4-(2-oxopiperazin-1-yl)phenyl)amino)-7-oxo-7,8-dihydropyrido[2,3-d]pyrimidine-6-carbonitrile]
6 | 6 | 22 | 1 | 1310 | 1320 | 540 | N#Cc1cc2cnc(Nc3ccc(N4CCN5CCCCC5C4)c(F)c3)nc2n(C2CCCC2)c1=O (stereo not drawn) [Compound No. 59, 8-cyclopentyl-2-((3-fluoro-4-(octahydro-2H-pyrido[1,2-a]pyrazin-2-yl)phenyl)amino)-7-oxo-7,8-dihydropyrido[2,3-d]pyrimidine-6-carbonitrile]
7 | 52 | 55 | 18 | 34 | 5080 | 6900 | N#Cc1cc2cnc(Nc3ccn(C4CCNCC4)c(=O)c3)nc2n(C2CCCC2)c1=O [Compound No. 60, 8-cyclopentyl-7-oxo-2-((2-oxo-1-(piperidin-4-yl)-1,2-dihydropyridin-4-yl)amino)-7,8-dihydropyrido[2,3-d]pyrimidine-6-carbonitrile]
